From the NIST ThermoML archive (doi:10.1021/je1012857)
Numbers after ± are expanded uncertainties.

Assay: xn = mol fraction of the nth substance listed
Details: 101 kPa, Liquid; for speed of sound: Sing-around technique in a fixed-path interferometer; for viscosity: Capillary tube (Ostwald / Ubbelohde) method

NCCN [ethane-1,2-diamine] + CC(C)CO
Details | mass density, 303.15 K [kg/m3] | mass density, 308.15 K [kg/m3] | mass density, 313.15 K [kg/m3] | speed of sound, 303.15 K [m/s] | speed of sound, 308.15 K [m/s] | speed of sound, 313.15 K [m/s] | viscosity, 308.15 K [mPa·s]
x1 = 0.0664 | 802.02 ± 0.56 | 797.994 ± 0.57 | 793.931 ± 0.57 | – | 1185.4 ± 1.2 | 1168.4 ± 1.2 | 2.18 ± 0.017
x1 = 0.0967 | 805.385 ± 0.56 | 801.327 ± 0.56 | 797.223 ± 0.57 | – | 1198.8 ± 1.2 | 1181.6 ± 1.2 | 2.169 ± 0.017
x1 = 0.1652 | 812.854 ± 0.55 | 808.708 ± 0.55 | 804.528 ± 0.56 | – | 1228.7 ± 1.2 | 1211.5 ± 1.2 | 2.147 ± 0.017
x1 = 0.2002 | 816.592 ± 0.54 | 812.41 ± 0.55 | 808.187 ± 0.56 | – | 1244.4 ± 1.2 | 1227.1 ± 1.2 | 2.135 ± 0.017
x1 = 0.2617 | 822.547 ± 0.54 | 818.501 ± 0.54 | 814.225 ± 0.55 | – | 1271.1 ± 1.2 | 1253.6 ± 1.2 | 2.097 ± 0.016
x1 = 0.3019 | 826.644 ± 0.53 | 822.366 ± 0.54 | 818.055 ± 0.54 | – | 1288.9 ± 1.3 | 1271.2 ± 1.2 | 2.059 ± 0.016
x1 = 0.4093 | 836.134 ± 0.52 | 831.795 ± 0.53 | 827.425 ± 0.53 | – | 1334.9 ± 1.3 | 1316.9 ± 1.3 | 1.924 ± 0.015
x1 = 0.5014 | 843.853 ± 0.51 | 839.474 ± 0.52 | 835.064 ± 0.52 | 1393.5 ± 1.3 | 1374.9 ± 1.3 | 1356.4 ± 1.3 | 1.776 ± 0.014
x1 = 0.6011 | 852.325 ± 0.5 | 847.896 ± 0.51 | 843.444 ± 0.51 | 1439.5 ± 1.3 | 1420.2 ± 1.3 | 1400.9 ± 1.3 | 1.583 ± 0.013
x1 = 0.6911 | 859.166 ± 0.49 | 854.681 ± 0.5 | 850.175 ± 0.5 | 1480.6 ± 1.3 | 1460.9 ± 1.3 | 1441.2 ± 1.3 | 1.446 ± 0.012
x1 = 0.7887 | 867.883 ± 0.48 | 863.336 ± 0.49 | 858.761 ± 0.49 | 1530.2 ± 1.3 | 1509.8 ± 1.3 | 1489.6 ± 1.3 | 1.314 ± 0.011
x1 = 0.8471 | 873.42 ± 0.47 | 868.829 ± 0.48 | 864.211 ± 0.49 | 1561.5 ± 1.3 | 1540.7 ± 1.3 | 1520.1 ± 1.3 | 1.248 ± 0.011
x1 = 0.8998 | 878.575 ± 0.47 | 873.941 ± 0.47 | 869.284 ± 0.48 | 1591.2 ± 1.3 | 1570.1 ± 1.3 | 1548.9 ± 1.3 | 1.191 ± 0.011
x1 = 0.9391 | 882.76 ± 0.46 | 878.094 ± 0.47 | 873.407 ± 0.47 | 1614.6 ± 1.3 | 1593.1 ± 1.3 | 1571.7 ± 1.3 | 1.154 ± 0.011
